Counter-ions that a name gives are not always drawn.
Test system: rat hepatocytes
Test: metabolism sample: incubation of sibutramine with rat hepatocytes, metabolites detected by μPESI/MS
Format: in vitro ADME
Conditions: R-enantiomer of sibutramine hydrochloride incubated with rat hepatocytes for 8 h, 2.5-μl injection, Q-TOF Micro
Experimental: For bioanalysis experiments verapamil, angiotensin I, angiotensin II, substance P, and horse heart myoglobin were used as test compounds and 2.5 μl of each sample was pipetted to the sample introduction spot. For the measurements of linearity and sensitivity verapamil was dissolved into acetonitrile:water (95:5) with 0.1% formic acid at concentrations of 10 pM to 10 μM. The metabolism sample was prepared by incubating R-enantiomer of sibutramine hydrochloride (purity>99%) with rat hepatocytes for 8 h. After sample preparation the sample was evaporated dryness and the residue was diluted to 50 μl of methanol. 10 μl of sample was dissolved into 500 μl acetonitrile:water (95:5) with 0.1% formic acid.
The peptides (angiotensin I, angiotensin II, and substance P) and the protein (horse heart myoglobin) were diluted into 80% aqueous methanol containing 1% acetic acid (two separate samples). The concentrations were 5 μM for the peptides and 300 nM for horse heart myoglobin. Full-scan mass spectra ranging from m/z 400 to 750 were measured from the peptide mixture and m/z 700 to 950 from the protein in the positive mode. Sibutramine metabolism sample was measured with Q-TOF Micro. A mass spectrum of solvent blank sample was subtracted from that of metabolism sample. […]

## CC(C)CC(N(C)C)C1(c2ccc(Cl)cc2)CCC1 (stereo not shown) [sibutramine, sibutramine hydrochloride]
  sibutramine metabolites found in metabolism sample: small amounts of sibutramine glucuronides were found

Source: US7928368B2, “Micropillar array electrospray chip” (Licentia Oy, priority 2007, dated 2011)
